# Reference: publication PMC5823406, “Vehicle development, pharmacokinetics and toxicity of the anti-invasive agent 4-fluoro-3’,4’,5’-trimethoxychalcone in rodents” (PLoS ONE, 2018)
# Marks after values point to notes of the source that are not given here.
# Tested on: CD-1 mice
# Assay: 7-Day repeat-dose toxicity study (medicated gel)
# Type: in vivo, mouse
# Conditions: for Organ weight: Kidneys / Organ weight: Liver / Organ weight: Spleen: Average±SD; for Hyperactivity and increased anxiety on opening of the cages: from day 2 on
# Description: Fifteen 7-week old male CD-1 mice, weighing 27 to 34 g, were obtained from Janvier, France. Animals were randomly allocated to one of four cohorts (N = 4 for the 0 mg/kg, 100 mg/kg and 300 mg/kg C16 cohorts, N = 3 for the water control group). Animals were healthy at the start of the trial. Each cohort was housed in one conventional cage with wood chip bedding and kept in a room with a well-controlled temperature (20–24°C) and humidity with 12-h light/dark cycles. Duration of acclimation was five days, during which all animals had ad libitum access to feed and tap water. Feed was obtained from Carfil, Belgium (Complete feed for rats and mice, article n° 10783915). Animals were ear-marked under isoflurane anesthesia (induction 5%, maintenance 2.5%, oxygen 1 L/min) on day -3 of the study. The study was not blinded.
# On the morning of day -2 of the study, tap water access was removed from the 0 mg/kg, 100 mg/kg and 300 mg/kg C16 cohorts. These groups were granted access to two non-medicated cups of Medigel sucralose (one in a tailor-made plastic holder with magnetic fixation system to the side of the cage, one in a cardboard holder on top of the bedding material) for an acclimatization period of three days. Note: the magnetic fixation system is preferable, as animals tear and consume the cardboard holders.
# Medicated gels were prepared in order to provide animals with a PO C16 dose equaling oral gavage dosing at 0, 100 and 300 mg/kg three times per day (0, 78.43 and 235.29 mg C16 per cup, respectively, assuming a consumption of 7 mL of gel per day and an average animal weight of 30 g). On the morning of day 0 of the study, treatment with two medicated gels was started and maintained up to the morning of day 7 (i.e. a 7-day treatment). Fresh cups were prepared and provided every day. Meanwhile, the water control group was continuously granted unlimited access to tap water. Throughout the study, all animals had ad libitum access to feed, except for the water control group, which was fasted on the evening of day 6, i.e. twelve hours prior to the single PO test article administration. Animal weight, feed and water/gel consumption and the presence of toxic symptoms and autonomic effects were monitored on a daily basis for all cohorts.
# On the evening of day 6, blood was collected via the tail vein for the 0, 100 and 300 mg/kg C16 cohorts for determination of the whole blood C16 level. On the morning of day 7, mice of the 0, 100 and 300 mg/kg C16 cohorts were anesthetized by IP injection with 250 mg/kg of Avertin (20 mL/kg, preparation see Section E in S1 File). Blood for C16 determination and hematological and biochemical analysis was collected via cardiac exsanguination (600 μL to 1 mL). Detailed analysis protocols are described below. Afterward, animals were sacrificed by cervical dislocation.
# All animals were necropsied and assessed for gross pathology. Liver, kidneys and spleen weights were recorded, and fragments of these organs were fixed in a 4% formaldehyde solution and processed for microscopic evaluation.
# Cardiac puncture as described above afforded 0.6–1 mL of blood. Approximately 500 μL thereof was collected in a Greiner Bio 0.5 mL ethylenediaminetetraacetic acid (EDTA) Eppendorf tube for hematological parameter determination and kept at room temperature. The remaining volume was collected in a regular Eppendorf tube and allowed to clot completely at room temperature over 45 min. The tubes were centrifuged at 1,900 x g (3000 rpm) and 4 °C for 10 min using a swinging bucket rotor. The upper serum phase was transferred to a new tube with conical bottom. Care was taken not to disturb the intermediate buffy coat layer. The serum samples were centrifuged at 16,000 x g and 4 °C for 10 min in a fixed-angle rotor. The cleared supernatant was transferred to a new tube without disturbing the pellet, affording 200–500 μL of serum. Samples were diluted to 500 μL with normal saline, flash frozen in liquid N2 and stored at -80 °C prior to analysis. […]
# [1] = 100 mg/kg cohort, 7-day PO via medicated gels, average±SD
# [2] = 300 mg/kg cohort, 7-day PO via medicated gels
# [3] = 300 mg/kg cohort, 7-day PO via medicated gels, average±SD
structure (smiles),measurement,setting,value
"COc1cc(C(=O)/C=C/c2ccc(F)cc2)cc(OC)c1OC [C16, 4-fluoro-3’,4’,5’-trimethoxychalcone]",ALP,[1],118±33 IU/L
same,ALT,[1],70±40 IU/L
same,AST,[1],345±365 IU/L
same,BASO,[1],0.2±0.2%
same,CHO,[1],96 ± 21 mg/dL
same,EO,[1],0±0%
same,GLUC,[1],218 ± 30 mg/dL
same,HCT,[1],44.5±5.2%
same,HGB,[1],12.2 ± 0.2 g/dL
same,IG,[1],0.04±0.06 10^3/μL
same,LYMP,[1],79.2±3.4%
same,MCH,[1],14.7 ± 1.5 pg
same,MCV,[1],53.4 ± 1.8 fL
same,MONO,[1],2.5±0.6%
same,NEUT,[1],16.9±4.9%
same,NRBC,[1],0.75±1.06 10^3/μL
same,PLT,[1],281±33 10^3/μL
same,RBC,[1],8.32±0.69 10^6/μL
same,TP,[1],42.0 ± 4.5 g/L
same,TRIGL,[1],110 ± 45 mg/dL
same,WBC,[1],3.05±0.08 10^3/μL
same,Organ weight: Kidneys,100 mg/kg cohort,0.45 ± 0.02 g
same,Organ weight: Liver,100 mg/kg cohort,1.67 ± 0.33 g
same,Organ weight: Spleen,100 mg/kg cohort,0.16 ± 0.06 g
same,"Daily gel consumption, average","100 mg/kg cohort, Day 1",14.9 g/animal
same,"Feed consumption, average","100 mg/kg cohort, Day 1",4.8 g/animal
same,Animal weight,"100 mg/kg cohort, Day 1, Average±SD",30.0 ± 1.7 g
same,"Daily gel consumption, average","100 mg/kg cohort, Day 2",12.3 g/animal
same,"Feed consumption, average","100 mg/kg cohort, Day 2",5.4 g/animal
same,Animal weight,"100 mg/kg cohort, Day 2, Average±SD",30.6 ± 1.6 g
same,"Daily gel consumption, average","100 mg/kg cohort, Day 3",11.2 g/animal
same,"Feed consumption, average","100 mg/kg cohort, Day 3",6.1 g/animal
same,Animal weight,"100 mg/kg cohort, Day 3, Average±SD",31.2 ± 2.0 g
same,"Daily gel consumption, average","100 mg/kg cohort, Day 4",15.1 g/animal
same,"Feed consumption, average","100 mg/kg cohort, Day 4",6.9 g/animal
same,Animal weight,"100 mg/kg cohort, Day 4, Average±SD",32.0 ± 2.1 g
same,"Daily gel consumption, average","100 mg/kg cohort, Day 5",18.1 g/animal
same,"Feed consumption, average","100 mg/kg cohort, Day 5",5.9 g/animal
same,Animal weight,"100 mg/kg cohort, Day 5, Average±SD",32.4 ± 2.0 g
same,"Daily gel consumption, average","100 mg/kg cohort, Day 6",13.1 g/animal
same,"Feed consumption, average","100 mg/kg cohort, Day 6",5.6 g/animal
same,Animal weight,"100 mg/kg cohort, Day 6, Average±SD",32.1 ± 2.0 g
same,"Daily gel consumption, average","100 mg/kg cohort, Day 7",11.8 g/animal
same,"Feed consumption, average","100 mg/kg cohort, Day 7",5.6 g/animal
same,Animal weight,"100 mg/kg cohort, Day 7, Average±SD",32.7 ± 2.2 g
same,Hyperactivity and increased anxiety on opening of the cages,100 mg/kg cohort,slightly noticeable
same,IG,[2],0 10^3/μL
same,LYMP,[2],60.1%
same,NEUT,[2],39.9%
same,ALP,[3],94±18 IU/L
same,ALT,[3],43±9 IU/L
same,AST,[3],221±65 IU/L
same,BASO,[3],0±0%
same,CHO,[3],73 ± 18 mg/dL
same,EO,[3],0±0%
same,GLUC,[3],206±24 ^a mg/dL
same,HCT,[3],34.0±7.78%
same,HGB,[3],10.1 ± 2.9 g/dL
same,MCH,[3],16.0 ± 0.2 pg
same,MCV,[3],54.5 ± 4.24 fL
same,MONO,[3],2.6±3.7%
same,NRBC,[3],0.35±0.49 10^3/μL
same,RBC,[3],6.32±1.92 10^6/μL
same,TP,[3],31.6 ± 21.3 g/L
same,TRIGL,[3],123 ± 55 mg/dL
same,WBC,[3],2.97±0.94 10^3/μL
same,Organ weight: Liver,300 mg/kg cohort,1.70 ± 0.19 g
same,Organ weight: Spleen,300 mg/kg cohort,0.15 ± 0.04 g
same,Organ weight: Kidneys,"300 mg/kg cohort, p 0.001",0.39 ± 0.02 g
same,"Daily gel consumption, average","300 mg/kg cohort, Day 1",15.2 g/animal
same,"Feed consumption, average","300 mg/kg cohort, Day 1",6.0 g/animal
same,Animal weight,"300 mg/kg cohort, Day 1, Average±SD",28.6 ± 0.6 g
same,"Daily gel consumption, average","300 mg/kg cohort, Day 2",12.6 g/animal
same,"Feed consumption, average","300 mg/kg cohort, Day 2",6.3 g/animal
same,Animal weight,"300 mg/kg cohort, Day 2, Average±SD",29.8 ± 0.7 g
same,"Daily gel consumption, average","300 mg/kg cohort, Day 3",14.7 g/animal
same,"Feed consumption, average","300 mg/kg cohort, Day 3",8.4 g/animal
same,Animal weight,"300 mg/kg cohort, Day 3, Average±SD",29.6 ± 0.8 g
same,"Daily gel consumption, average","300 mg/kg cohort, Day 4",12.9 g/animal
same,"Feed consumption, average","300 mg/kg cohort, Day 4",6.6 g/animal
same,Animal weight,"300 mg/kg cohort, Day 4, Average±SD",30.5 ± 1.4 g
same,"Daily gel consumption, average","300 mg/kg cohort, Day 5",15.4 g/animal
same,"Feed consumption, average","300 mg/kg cohort, Day 5",6.1 g/animal
same,Animal weight,"300 mg/kg cohort, Day 5, Average±SD",30.7 ± 1.6 g
same,"Daily gel consumption, average","300 mg/kg cohort, Day 6",13.6 g/animal
same,"Feed consumption, average","300 mg/kg cohort, Day 6",7.1 g/animal
same,Animal weight,"300 mg/kg cohort, Day 6, Average±SD",31.1 ± 1.8 g
same,"Daily gel consumption, average","300 mg/kg cohort, Day 7",12.9 g/animal
same,"Feed consumption, average","300 mg/kg cohort, Day 7",6.2 g/animal
same,Animal weight,"300 mg/kg cohort, Day 7, Average±SD",31.3 ± 1.2 g
same,Hyperactivity and increased anxiety on opening of the cages,300 mg/kg cohort,noticeable
same,Kidney weight versus 100 mg/kg and 0 mg/kg cohort,"300 mg/kg cohort, p = 0.001",slight but significant decrease
same,Gross lesions on detailed necropsy,"medicated gel, 7 days",No gross lesions
same,Histology of the kidney and spleen,"medicated gel, 7 days",no abnormalities
